Measurements from patent US11654097B2, “Peptide having activities of skin whitening and uses thereof” (CAREGEN CO., LTD., priority 2019, dated 2023).

Legend:
[1] = tested on: mouse melanoma cell B16F10; assay: Inhibitory effect on melanin production in α-MSH-stimulated B16F10 cells; assay type: cell-based; settings: B16F10, 200 ng/ml α-MSH, peptide 10, 50, 100 or 200 μM, 72 hours, absorbance at 450 nm
Method: A mouse melanoma cell B16F10 was seeded in a 6-well plate at a density of 5×10^4 cells/well, followed by incubation for 16 hours. Thereafter, the culture medium was replaced by a medium supplemented with 2% serum, and then 200 ng/ml of α-melanocyte-stimulating hormones (α-MSH) was added thereto to stimulate melanin production, together with each peptide of an amino acid sequence of SEQ ID NO: 1, 2, or 3 at a concentration of 10 μM, 50 μM, 100 μM, or 200 μM, respectively, followed by incubation for 72 hours. Thereafter, the incubated cells were dissolved in 1 N NaOH, and absorbance at 450 nm was measured. Moreover, an untreated group (Con) was used as a control, and only an α-MSH-treated group as a negative control and a known skin-whitening agent Arbutin (200 μM, 500 μM) and an α-MSH-treated group as a positive control were used.

tyrosinase [2] = biological target: T1, tyrosinase (Mus musculus, UniProt P11344); assay: Inhibitory effect on tyrosinase activity in lysate of treated B16F10 cells (L-DOPA); assay type: cell-based; settings: B16F10, 200 ng/ml α-MSH, peptide 1-160 μM, 72 hours, absorbance at 475 nm
T1 construct: The cells were lysed by adding a 0.1 M sodium phosphate buffer (pH 6.8, lysis buffer) containing 1% triton X-100; endogenous in cells; host or cells: B16F10 mouse melanoma cells stimulated with alpha-MSH
T1 sequence (P11344 19-533): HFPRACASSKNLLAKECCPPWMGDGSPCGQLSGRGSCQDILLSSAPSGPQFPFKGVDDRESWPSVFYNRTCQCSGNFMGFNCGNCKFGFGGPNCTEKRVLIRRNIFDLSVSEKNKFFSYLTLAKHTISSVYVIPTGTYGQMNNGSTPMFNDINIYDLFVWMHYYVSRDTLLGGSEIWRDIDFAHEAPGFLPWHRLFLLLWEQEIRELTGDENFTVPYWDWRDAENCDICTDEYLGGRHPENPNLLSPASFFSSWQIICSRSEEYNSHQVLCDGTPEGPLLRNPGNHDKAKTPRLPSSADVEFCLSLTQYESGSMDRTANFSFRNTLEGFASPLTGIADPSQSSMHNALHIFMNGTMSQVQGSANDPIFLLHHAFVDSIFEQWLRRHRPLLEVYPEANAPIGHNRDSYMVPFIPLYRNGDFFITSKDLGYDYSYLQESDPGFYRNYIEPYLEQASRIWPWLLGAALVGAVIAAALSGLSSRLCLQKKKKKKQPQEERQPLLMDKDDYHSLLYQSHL
Method: A mouse melanoma cell B16F10 was seeded in a 6-well plate at a density of 5×10^4 cells/well, followed by incubation for 16 hours. Thereafter, the culture medium was replaced by a medium supplemented with 2% serum, and then 200 ng/ml of α-MSH was added thereto, together with each peptide of an amino acid sequence of SEQ ID NO: 1, 2, or 3 at a concentration of 1 μM, 10 μM, 20 μM, 40 μM, 60 μM, 80 μM or 160 μM, respectively, followed by incubation for 72 hours. The 6-well plate was placed on ice, and then washed with cold PBS. The cells were lysed by adding a 0.1 M sodium phosphate buffer (pH 6.8, lysis buffer) containing 1% triton X-100. Thereafter, the cells in the well plate were scraped, and collected in a 1.5 ml tube, followed by vortexing. Centrifugation was carried out at 15,000 rpm for 10 minutes to obtain a supernatant. Thereafter, proteins in the supernatant was quantified to adjust the protein content at a predetermined amount. A buffer was added thereto, and total 90 μl of the sample was dispensed in a 96-well plate.
Thereafter, 20 μL of 10 mM L-DOPA was added to each sample, and incubated at 37° C. for 1 hour. Then, absorbance at 475 nm was measured. In addition, an untreated group (Con) was used as a control, and only α-MSH-treated group as a negative control and Arbutin (200 μM or 500 μM) and α-MSH-treated group as a positive control were used.

MITF [3] = assay: Expression of melanin production-associated gene (RT-PCR) in B16F10 cells; assay type: cell-based, mouse; settings: B16F10, 200 ng/ml α-MSH, peptide 10-200 μM, 72 hours
Method: (§1) A mouse melanoma cell B16F10 was seeded in a 6-well plate at a density of 5×10^4 cells/well, followed by incubation for 16 hours. Thereafter, the culture medium was replaced by a medium supplemented with 2% serum, and then 200 ng/ml of α-MSH was added thereto, together with each peptide of an amino acid sequence of SEQ ID NO: 1, 2, or 3 at a concentration of 10 μM, 50 μM, 100 μM, or 200 μM, respectively, followed by incubation for 72 hours. mRNAs were extracted from the cultured cells, and the extracted mRNAs were reverse transcribed using a cDNA synthesis kit & PCR pre-mix (Intron, Korea), thereby synthesizing cDNA, respectively. Thereafter, a polymerase chain reaction (PCR) was carried out using each cDNA and Rab27a, Melanophilin (Mlph), myosin VA, MITF, Tyrosinase, and TRP1 primers. Moreover, a control, a negative control, and a positive control were used in the same manner as in Example 2, and nucleotide sequences of the primers used herein are the same as in Table 3 below.

Mlph [4] = assay: as above; assay type: cell-based, mouse; settings: B16F10, 200 ng/ml α-MSH, peptide 10-200 μM, 72 hours
Method: as §1

Rab27a [5] = assay: as above; assay type: cell-based, mouse; settings: B16F10, 200 ng/ml α-MSH, peptide 10-200 μM, 72 hours
Method: as §1

TRP1 = assay: as above; assay type: cell-based, mouse; settings: B16F10, 200 ng/ml α-MSH, peptide 10-200 μM, 72 hours
Method: as §1

myosin VA = assay: as above; assay type: cell-based, mouse; settings: B16F10, 200 ng/ml α-MSH, peptide 10-200 μM, 72 hours
Method: as §1

tyrosinase [6] = assay: as above; assay type: cell-based, mouse; settings: B16F10, 200 ng/ml α-MSH, peptide 10-200 μM, 72 hours
Method: as §1

MITF [7] = assay: Expression of melanin production-associated protein (Western blotting) in B16F10 cells; assay type: cell-based, mouse; settings: B16F10, 200 ng/ml α-MSH, peptide 10-200 μM, 72 hours
Method: (§2) A mouse melanoma cell B16F10 was seeded in a 6-well plate at a density of 5×10^4 cells/well, followed by incubation for 16 hours. Thereafter, the culture medium was replaced by a medium supplemented with 2% serum, and then 200 ng/ml of α-MSH was added thereto, together with each peptide of an amino acid sequence of SEQ ID NO: 1, 2, or 3 at a concentration of 10 μM, 50 μM, 100 μM, or 200 μM, respectively, followed by incubation for 72 hours. Thereafter, the cultured cells were lysed, and then subjected to Western blotting using antibodies (santacruz biotechnology, USA) against Mlph, Rab27a, Tyrosinase, MITF, and TRP-1. In addition, a control, a negative control, and a positive control were used in the same manner as in Example 2.

Mlph [8] = assay: as above; assay type: cell-based, mouse; settings: B16F10, 200 ng/ml α-MSH, peptide 10-200 μM, 72 hours
Method: as §2

Rab27a [9] = assay: as above; assay type: cell-based, mouse; settings: B16F10, 200 ng/ml α-MSH, peptide 10-200 μM, 72 hours
Method: as §2

tyrosinase [10] = assay: as above; assay type: cell-based, mouse; settings: B16F10, 200 ng/ml α-MSH, peptide 10-200 μM, 72 hours
Method: as §2

TRP-1 = assay: as above; assay type: cell-based, mouse; settings: B16F10, 200 ng/ml α-MSH, peptide 10-200 μM, 72 hours
Method: as §2

WPFLRP [SEQ ID NO: 3]
melanin production [1]: reduced in a concentration-dependent manner
tyrosinase activity (tyrosinase [2]): inhibited in a concentration-dependent manner
expression of MITF gene (MITF [3]): inhibited
expression of Mlph gene (Mlph [4]): inhibited
expression of Rab27a gene (Rab27a [5]): inhibited
expression of TRP1 gene (TRP1): inhibited
expression of myosin VA gene (myosin VA): inhibited
expression of tyrosinase gene (tyrosinase [6]): inhibited
expression of MITF protein (MITF [7]): inhibited
expression of Mlph protein (Mlph [8]): inhibited
expression of Rab27a protein (Rab27a [9]): inhibited
expression of Tyrosinase protein (tyrosinase [10]): inhibited

FHFIPNW [SEQ ID NO: 2]
melanin production [1]: reduced in a concentration-dependent manner
tyrosinase activity (tyrosinase [2]): inhibited in a concentration-dependent manner
expression of MITF gene (MITF [3]): inhibited
expression of Mlph gene (Mlph [4]): inhibited
expression of tyrosinase gene (tyrosinase [6]): inhibited
expression of MITF protein (MITF [7]): inhibited
expression of TRP-1 protein (TRP-1): inhibited
expression of Tyrosinase protein (tyrosinase [10]): inhibited

LRKRKRRFWVL [SEQ ID NO: 1]
melanin production [1]: reduced in a concentration-dependent manner
tyrosinase activity (tyrosinase [2]): inhibited in a concentration-dependent manner
expression of MITF gene (MITF [3]): inhibited
expression of Rab27a gene (Rab27a [5]): inhibited
expression of TRP1 gene (TRP1): inhibited
expression of myosin VA gene (myosin VA): inhibited
expression of tyrosinase gene (tyrosinase [6]): inhibited
expression of MITF protein (MITF [7]): inhibited
expression of Mlph protein (Mlph [8]): inhibited
expression of Rab27a protein (Rab27a [9]): inhibited
expression of Tyrosinase protein (tyrosinase [10]): inhibited
